Data set [1] addresses T1, UDP-glucuronosyltransferase 1A8 (Homo sapiens, UniProt Q9HAW9).
T1 sequence (Q9HAW9 whole entry): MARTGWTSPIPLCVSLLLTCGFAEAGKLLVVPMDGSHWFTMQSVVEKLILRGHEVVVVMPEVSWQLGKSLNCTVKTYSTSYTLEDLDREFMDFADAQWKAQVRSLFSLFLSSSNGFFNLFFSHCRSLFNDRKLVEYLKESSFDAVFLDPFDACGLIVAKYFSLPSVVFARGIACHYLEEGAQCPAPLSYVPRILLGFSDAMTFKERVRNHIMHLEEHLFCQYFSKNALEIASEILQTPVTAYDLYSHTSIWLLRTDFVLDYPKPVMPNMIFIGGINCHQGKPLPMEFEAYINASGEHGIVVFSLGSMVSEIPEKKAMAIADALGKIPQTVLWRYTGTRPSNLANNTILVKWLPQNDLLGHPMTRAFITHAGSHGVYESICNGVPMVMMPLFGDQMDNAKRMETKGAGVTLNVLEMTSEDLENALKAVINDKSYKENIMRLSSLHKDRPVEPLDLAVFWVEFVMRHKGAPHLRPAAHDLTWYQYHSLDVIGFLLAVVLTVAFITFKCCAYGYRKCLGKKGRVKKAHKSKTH
As to the kind of experiment: Activity of human recombinant UGT1A8 assessed as intrinsic clearance incubated for 5 mins prior to UDPGA addition measured after 90 mins. Type of data set: ADME. The conditions noted are these: recombinant enzyme, 1.5 h.

Data set [2] can be described thus: Intrinsic clearance in pig liver microsomes incubated for 5 mins prior to UDPGA addition measured after 90 mins. The class given is ADME, Sus scrofa. The settings on record: 1.5 h. (Liver microsomes are a subcellular fraction often used to study metabolism.)
A short description of data set [3]: Drug metabolism in pig liver microsomes assessed as IRI-O-5-monoglucuronide formation incubated for 5 mins prior to UDPGA addition measured after 90 mins by Eadie-Hoftsee plot analysis. The settings on record: 1.5 h. Type of data set: ADME, Sus scrofa.
In data set [4] the target is T2, UDP-glucuronosyltransferase 1A10 (Homo sapiens, UniProt Q9HAW8).
T2 sequence (Q9HAW8 whole entry): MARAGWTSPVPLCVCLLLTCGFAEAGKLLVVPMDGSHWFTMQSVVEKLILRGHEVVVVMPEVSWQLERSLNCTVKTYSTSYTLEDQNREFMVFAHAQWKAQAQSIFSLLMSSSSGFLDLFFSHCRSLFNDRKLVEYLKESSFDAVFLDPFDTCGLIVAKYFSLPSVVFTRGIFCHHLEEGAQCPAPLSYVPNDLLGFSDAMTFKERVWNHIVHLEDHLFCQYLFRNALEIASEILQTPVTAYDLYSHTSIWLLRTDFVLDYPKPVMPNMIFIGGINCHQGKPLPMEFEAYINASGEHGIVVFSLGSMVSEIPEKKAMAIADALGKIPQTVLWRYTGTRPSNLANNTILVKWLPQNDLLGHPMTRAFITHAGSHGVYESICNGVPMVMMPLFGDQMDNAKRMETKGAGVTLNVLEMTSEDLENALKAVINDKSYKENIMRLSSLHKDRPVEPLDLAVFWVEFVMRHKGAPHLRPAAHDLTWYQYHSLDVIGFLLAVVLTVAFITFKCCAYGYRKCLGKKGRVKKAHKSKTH
As to the kind of experiment: Substrate inhibition of human recombinant UGT1A10 assessed as IRI-O-5-monoglucuronide formation incubated for 5 mins prior to UDPGA addition measured after 90 mins by Eadie-Hoftsee plot analysis. The class given is ADME.

Data set [5] in a line: Drug metabolism in pig liver microsomes assessed as substrate inhibition of IRI-O-5-monoglucuronide formation incubated for 5 mins prior to UDPGA addition measured after 90 mins by Eadie-Hoftsee plot analysis. Type of data set: ADME, Sus scrofa.
The test system of data set [6] is Liver microsome. As to the kind of experiment: Drug metabolism in human liver microsomes assessed as IRI-O-4'-monoglucuronide formation incubated for 5 mins prior to UDPGA addition measured after 90 mins by Eadie-Hoftsee plot analysis. The class given is ADME. The settings on record: 1.5 h.
Data set [7] concerns the target T2, UDP-glucuronosyltransferase 1A10. Nature of the data set: Activity of human recombinant UGT1A10 assessed as intrinsic clearance incubated for 5 mins prior to UDPGA addition measured after 90 mins. The class given is ADME. The settings on record: recombinant enzyme, 1.5 h.
In data set [8] the target is T3, UDP-glucuronosyltransferase 2B15 (Homo sapiens, UniProt P54855).
T3 sequence (P54855 whole entry): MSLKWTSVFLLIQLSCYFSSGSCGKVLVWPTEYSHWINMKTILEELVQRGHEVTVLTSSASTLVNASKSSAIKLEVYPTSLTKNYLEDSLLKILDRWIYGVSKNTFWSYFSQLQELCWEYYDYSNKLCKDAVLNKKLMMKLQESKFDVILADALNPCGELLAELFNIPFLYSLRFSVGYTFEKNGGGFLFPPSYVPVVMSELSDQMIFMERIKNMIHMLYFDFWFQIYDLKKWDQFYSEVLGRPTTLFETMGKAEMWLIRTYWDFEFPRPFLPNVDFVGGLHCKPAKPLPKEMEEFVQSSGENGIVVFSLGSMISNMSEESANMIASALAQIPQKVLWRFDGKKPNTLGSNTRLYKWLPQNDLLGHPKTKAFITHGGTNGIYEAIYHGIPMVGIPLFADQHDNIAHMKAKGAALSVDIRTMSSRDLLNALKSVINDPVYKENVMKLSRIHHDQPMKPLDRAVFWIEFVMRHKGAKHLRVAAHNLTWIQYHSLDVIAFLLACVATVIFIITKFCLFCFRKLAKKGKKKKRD
Nature of the data set: Drug metabolism assessed as human recombinant UGT2B15-mediated glucuronidation incubated for 5 mins prior to UDPGA addition measured after 90 mins by HPLC-DAD analysis. The class given is ADME. The settings on record: recombinant enzyme, 1.5 h.

For data set [9], the target named is T4, UDP-glucuronosyltransferase 1A7 (Homo sapiens, UniProt Q9HAW7).
T4 sequence (Q9HAW7 whole entry): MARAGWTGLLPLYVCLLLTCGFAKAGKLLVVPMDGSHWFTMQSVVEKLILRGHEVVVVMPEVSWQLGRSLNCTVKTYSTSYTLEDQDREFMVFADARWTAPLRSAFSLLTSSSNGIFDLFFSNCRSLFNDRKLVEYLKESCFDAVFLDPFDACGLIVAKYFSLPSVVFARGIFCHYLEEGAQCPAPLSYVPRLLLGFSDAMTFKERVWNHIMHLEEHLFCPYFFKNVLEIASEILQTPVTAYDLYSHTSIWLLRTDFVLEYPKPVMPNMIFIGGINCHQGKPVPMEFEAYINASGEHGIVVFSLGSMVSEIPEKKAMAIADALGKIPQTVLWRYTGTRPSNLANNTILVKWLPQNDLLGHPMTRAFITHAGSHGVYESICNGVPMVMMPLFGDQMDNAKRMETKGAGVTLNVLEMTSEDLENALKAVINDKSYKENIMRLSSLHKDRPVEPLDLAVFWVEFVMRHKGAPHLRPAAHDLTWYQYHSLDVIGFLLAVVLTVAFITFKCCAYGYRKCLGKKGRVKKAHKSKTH
As to the kind of experiment: Drug metabolism assessed as human recombinant UGT1A7-mediated irilone-O-5-monoglucuronide formation at 25 uM incubated for 5 mins prior to UDPGA addition measured after 90 mins by HPLC-DAD analysis. The class given is ADME. The conditions noted are these: recombinant enzyme, 1.5 h.

Data set [10] deals with T4, UDP-glucuronosyltransferase 1A7. As to the kind of experiment: Drug metabolism assessed as human recombinant UGT1A7-mediated irilone-O-4'-monoglucuronide formation at 25 uM incubated for 5 mins prior to UDPGA addition measured after 90 mins by HPLC-DAD analysis. The class given is ADME. The conditions noted are these: recombinant enzyme, 1.5 h.
In data set [11] the target is T1, UDP-glucuronosyltransferase 1A8. Nature of the data set: Drug metabolism assessed as human recombinant UGT1A8-mediated irilone-O-5-monoglucuronide formation at 25 uM incubated for 5 mins prior to UDPGA addition measured after 90 mins by HPLC-DAD analysis. The class given is ADME. The settings on record: recombinant enzyme, 1.5 h.
Data set [12] has as its target T2, UDP-glucuronosyltransferase 1A10. As to the kind of experiment: Substrate inhibition of human recombinant UGT1A10 assessed as IRI-O-4'-monoglucuronide formation incubated for 5 mins prior to UDPGA addition measured after 90 mins by Eadie-Hoftsee plot analysis. Type of data set: ADME.

pKi: −log10 of the molar value.

Turning to `O=c1c(-c2ccc(O)cc2)coc2cc3c(c(O)c12)OCO3`, the values for the CL in [1] and in data set [7] were 20200 µL/min/mg and 99900 µL/min/mg, respectively. The molecule further yielded a CLH in data set [2] of 71800 µL/min/mg. In addition, the Km is 16.8 µM in data set [3] and 64.7 µM in data set [6]. The Vmax in data set [3] was 0.28 nmol/mg/min; in [6], 0.34 nmol/mg/min. In addition, the Ki entry in data set [4] is on record as “Not Active”. Also, the pKi in data set [5] is 3.74; in data set [12], 3.92. The Drug metabolism entry in [8] is given as “metabolite_not_detected”; in data set [9], “metabolite_detected”; in data set [10] it was “metabolite_detected”; in data set [11], “metabolite_detected”.

The Km is the substrate concentration at which the rate is half of its maximum. What is called Vmax is the rate approached at saturating substrate. Usually pKi stands for the Ki on a negative log10 scale, so that one unit is a factor of ten.

(Values after ChEMBL document CHEMBL3525955, “Glucuronidation of the red clover isoflavone irilone by liver microsomes from different species and human UDP-glucuronosyltransferases” (Drug Metab Dispos, 2011).)
